In patent US8247573B2, “Substituted N-(2-mercaptopyridin-3-yl)amides as KCNQ2/3 modulators” (Gruenenthal GmbH, priority 2009, dated 2012):

What was measured:
KCNQ2/3 channels = target: T1, KCNQ2/3 channels (Homo sapiens, UniProt O43525+O43526); assay: Fluorescence assay using a voltage-sensitive dye (fluorimetry); assay type: cell-based; conditions: CHO-K1 cells expressing KCNQ2/3; for EC50: agonistic activity; for Emax: relative to retigabine = 100%, negative values = antagonistic, read-out: Fluorimetry % efficacy (I/EC50, retigabine = 100%)
T1 construct: expressed in transfected cells; host or cells: CHO-K1
Protocol: Pharmacological Experiments Fluorescence Assay Using a Voltage-Sensitive Dye
Human CHO-K1 cells expressing KCNQ2/3 channels are cultivated adherently at 37° C., 5% CO2 and 95% humidity in cell culture bottles (e.g. 80 cm^2 TC flasks, Nunc) with DMEM-high glucose (Sigma Aldrich, D7777) including 10% FCS (PAN Biotech, e.g. 3302-P270521) or alternatively MEM Alpha Medium (1×, liquid, Invitrogen, #22571), 10% foetal calf serum (FCS) (Invitrogen, #10270-106, heat-inactivated) and the necessary selection antibiotics.
Before being seeded out for the measurements, the cells are washed with a 1×DPBS buffer without Ca^2+/Mg^2+ (e.g. Invitrogen, #14190-094) and detached from the bottom of the culture vessel by means of Accutase (PAA Laboratories, #L11-007) (incubation with Accutase for 15 min at 37° C.). The cell count then present is determined using a CASY™ cell counter (TCC model, Schärfe System) in order subsequently to apply 20,000 to 30,000 cells/well/100 μl of the described nutrient medium, depending on density optimisation for the individual cell line, to 96-well measuring plates of the Corning™ CellBIND™ type (flat clear-bottom black polystyrene microplates, #3340). Incubation is then carried out for one hour at room temperature, without gassing or adjusting the humidity, followed by incubation for 24 hours at 37° C., 5% CO2 and 95% humidity.
The voltage-sensitive fluorescent dye from the Membrane Potential Assay Kit (Red™ bulk format part R8123 for FLIPR, MDS Analytical Technologies™) is prepared by dissolving the contents of a vessel of Membrane Potential Assay Kit Red Component A in 200 ml of extracellular buffer (ES buffer, 120 mM NaCl, 1 mM KCl, 10 mM HEPES, 2 mM CaCl2, 2 mM MgCl2, 10 mM glucose; pH 7.4). After removal of the nutrient medium, the cells are washed with 200 μl of ES buffer, then covered with a layer of 100 μl of the dye solution prepared above and incubated for 45 min at room temperature with exclusion of light.
The fluorescence measurements are carried out with a BMG Labtech FLUOstar™, BMG Labtech NOVOstar™ or BMG Labtech POLARstar™ instrument (525 nm excitation, 560 nm emission, bottom-read mode). After incubation of the dye, 50 μl of the substances to be tested in the desired concentrations, or 50 μl of ES buffer for control purposes, are introduced into separate cavities of the measuring plate and incubated for 30 min at room temperature whilst being shielded from light. The fluorescence intensity of the dye is then measured for 5 min and the fluorescence value F1 of each well is thus determined at a given, constant time. 15 μl of a […] KCl solution […] are then added to each well. The change in fluorescence is subsequently measured until all relevant measured values have been obtained (mainly […]). At a given time after KCl application, a fluorescence value F2 is determined, in this case at the time of the fluorescence peak.
For calculation, the fluorescence intensity F2 is compared with the fluorescence intensity F1, and the agonistic activity of the target compound on the potassium channel is determined therefrom. F2 and F1 are calculated as follows: […]
In order to determine whether a substance has an agonistic activity,
[formula] is determined by adding to the reaction batch only the buffer solution instead of the substance to be tested, determining the value F1K of the fluorescence intensity, adding the potassium ions as described above and measuring a value F2K of the fluorescence intensity. Then F2K and F1K are calculated as follows: […]
A substance has an agonistic activity on the potassium channel if
Independently of the comparison of
[formula] it is also possible to conclude that a target compound has an agonistic activity if an increase in
[formula] is to be observed as the dosage of the target compound increases.
Calculations of EC50 values are carried out with the aid of Prism v4.0 software (GraphPad Softwares™).

mice = assay: Formalin test in mice; assay type: in vivo; conditions: 4.64 mg/kg, phase 2 (chronic pain), change versus vehicle control
Protocol: The formalin test (Dubuisson, D. and Dennis, S. G., 1977, Pain, 4, 161-174) is a model for acute and chronic pain. A single formalin injection into the dorsal side of one rear paw is used to induce a biphase nociceptive response in experimental animals allowed to move freely, and the response is recorded by observation of three clearly distinguishable behaviour patterns. The response comprises two phases: phase 1=immediate response (duration up to 10 min; shaking of paw, licking), phase 2=delayed response (after a rest phase; likewise shaking of paw, licking; duration up to 60 min). […] In the experiments presented here the chronic pain component (phase 2) was evaluated.
Formalin is administered subcutaneously in a volume of 20 μl and a concentration of 1% into the dorsal side of the right rear paw of each animal. The specific behavioural changes, such as lifting, shaking or licking the paw (score 3, Dubuisson & Dennis, 1977), were observed and recorded during the observation period of 21 to 24 min after formalin injection. […]
Based on the quantification of the pain behaviour, the effect of the substance in the formalin test was determined as the change in comparison to the control as a percentage. […]

Row | SMILES | EC50 (KCNQ2/3 channels) [nM] | Emax (KCNQ2/3 channels) [%] | Formalin test in mice IV Effect @ dose [mg/kg] (mice) [% @ 4.64]
1 | O=C(Cc1cccs1)Nc1cccnc1SCCS(=O)(=O)c1cccc(C(F)(F)F)c1 [Example 3, 2-Thiophen-2-yl-N-[2-[2-[[3-(trifluoromethyl)phenyl]sulfonyl]-ethylsulfanyl]-pyridin-3-yl]acetamide] | 31 | 164 | 87
2 | CC(C)(C)CC(=O)Nc1cccnc1SCCOc1ccc(F)cc1 [Example 63, N-[2-[2-(4-Fluorophenoxy)-ethylsulfanyl]-pyridin-3-yl]-3,3-dimethyl butyramide] | 546 | 119 | –
3 | O=C(Nc1cccnc1SCCOc1ccc(F)cc1)c1ccc(F)c(F)c1 [Example 64, 3,4-Difluoro-N-[2-[2-(4-fluorophenoxy)-ethylsulfanyl]-pyridin-3-yl]benzamide] | 200 | 49 | –
4 | O=C(Nc1cccnc1SCCCc1ccc(F)cc1)c1ccc(F)c(F)c1 [Example 65, 3,4-Difluoro-N-[2-[3-(4-fluorophenyl)-propylsulfanyl]-pyridin-3-yl]benzamide] | 480 | 148 | –
5 | CC(C)(C)CC(=O)Nc1cccnc1SCCCc1ccc(F)cc1 [Example 66, N-[2-[3-(4-Fluorophenyl)-propylsulfanyl]-pyridin-3-yl]-3,3-dimethyl butyramide] | 184 | 176 | –

Compounds with a lower EC50 (KCNQ2/3 channels), results first:

Row | EC50 (KCNQ2/3 channels) [nM] | Emax (KCNQ2/3 channels) [%] | SMILES | Formalin test in mice IV Effect @ dose [mg/kg] (mice) [% @ 4.64]
6 | 18 | 114 | O=C(CC1CCCCCC1)Nc1cccnc1SCCS(=O)(=O)c1ccc(F)cc1 [Example 67, 2-Cycloheptyl-N-[2-[2-[(4-fluorophenyl)sulfonyl]-ethylsulfanyl]-pyridin-3-yl]acetamide] | –
7 | 22 | 79 | O=C(Nc1cccnc1SCCS(=O)(=O)c1cccc(C(F)(F)F)c1)C(F)(F)C1CCCCC1 [Example 68, 2-Cyclohexyl-2,2-difluoro-N-[2-[2-[[3-(trifluoromethyl)phenyl]sulfonyl]-ethylsulfanyl]-pyridin-3-yl]acetamide] | –
